In brackets after ≈: the same amount, converted by molar mass.
Tests used:
[1] = tested on: Mycobacterium tuberculosis; assay: Ratio of effective concentration required for the reduction in colony forming units (CFU) at seven days compared to drug free controls to that of MIC against Mycobacterium tuberculosis Erdman; format: functional
[2] = tested on: Vero; assay: Selective index of IC50 of Vero Cells to that of MIC of Mycobacterium tuberculosis H37Rv; format: functional, Chlorocebus sabaeus
[3] = tested on: Mycobacterium tuberculosis; assay: In vitro antimycobacterial activity against Mycobacterium tuberculosis Erdman in broth cluture infected with macrophages; format: functional
[4] = tested on: Mycobacterium tuberculosis; assay: Effective concentration required for the reduction in colony forming units (CFU) at seven days compared to drug free controls; format: functional; settings: 168 h
[5] = tested on: Mycobacterium tuberculosis; assay: In vitro antimycobacterial activity against Mycobacterium tuberculosis H37Rv in broth cluture infected with macrophages; format: functional
[6] = tested on: Mycobacterium tuberculosis; assay: In vitro antimycobacterial activity against Mycobacterium tuberculosis H37Rv in broth cluture infected with macrophages; Range 0.025-0.05; format: functional

In the case of `O=C(N/N=C/c1ccc(C(F)(F)F)cc1)c1ccncc1`, the Ratio [1] is reported as 0.4, the Selective index [2] is reported as >1250 and the MIC [3] is reported as 0.1 µg/mL (≈ 0.341 µM). For the same compound, the EC90 [4] was 0.04 µg/mL (≈ 0.136 µM), the EC99 [4] was 0.09 µg/mL and the MBC [5] was 0.2 µg/mL (≈ 0.682 µM). It also gave an MIC [5] of 0.05 µg/mL (≈ 0.171 µM).

For `O=C(N/N=C/c1ccccc1F)c1ccncc1`, the Ratio [1] was 1, the Selective index [2] was 168 and the MIC [3] was 0.05 µg/mL (≈ 0.206 µM). It also gave an EC90 [4] of 0.05 µg/mL (≈ 0.206 µM), an EC99 [4] of 0.14 µg/mL and an MIC [5] of 0.05 µg/mL (≈ 0.206 µM).

Compound `C/C(=N\NC(=O)c1ccncc1)C(F)(F)F` has a Ratio [1] of 0.46, a Selective index [2] of 1160 and an MIC [3] of 0.1 µg/mL (≈ 0.433 µM). It also gave an EC90 [4] of 0.046 µg/mL (≈ 0.199 µM), an EC99 [4] of 0.41 µg/mL and an MBC [5] of 0.2 µg/mL (≈ 0.865 µM). It also gave an MIC [5] of 0.05 µg/mL (≈ 0.216 µM).

In the case of `C/C(=N\NC(=O)c1ccncc1)c1cccc(/C(C)=N/NC(=O)c2ccncc2)n1`, the Ratio [1] is reported as 0.23, the Selective index [2] is reported as 320.5 and the MIC [3] is reported as 0.39 µg/mL (≈ 0.972 µM). For the same compound, the EC90 [4] was 0.09 µg/mL (≈ 0.224 µM), the EC99 [4] was 0.29 µg/mL and the MBC [5] was 12.5 µg/mL (≈ 31.1 µM). The MIC [5] was ≤ 0.2 µg/mL.

For `O=C(N/N=C/C(F)(F)F)c1ccncc1`, the Selective index [2] was 302, the EC90 [4] was 0.05 µg/mL (≈ 0.23 µM) and the EC99 [4] was 0.25 µg/mL. For the same compound, the MIC [5] was 0.05 µg/mL (≈ 0.23 µM).

`C/C=N/NC(=O)c1ccncc1` was tested, and the Ratio [1] was 1.2, the Selective index [2] was >2500 and the MIC [3] was 0.025 µg/mL (≈ 0.153 µM). For the same compound, the EC90 [4] was 0.03 µg/mL (≈ 0.184 µM), the EC99 [4] was 0.08 µg/mL and the MBC [5] was 0.05 µg/mL (≈ 0.306 µM). For the same compound, the MIC [5] was 0.025 µg/mL (≈ 0.153 µM).

For `C/C(=N\NC(=O)c1ccncc1)c1ccc(F)cc1`, the Ratio [1] was 1.18, the Selective index [2] was >78 and the MIC [3] was 1.56 µg/mL (≈ 6.06 µM). It also gave an EC90 [4] of 1.84 µg/mL (≈ 7.15 µM), an EC99 [4] of 5.25 µg/mL and an MIC [5] of 1.6 µg/mL (≈ 6.22 µM).

`N#CC[n+]1ccc(C(=O)NNCc2ccccc2)cc1` was tested, and the Ratio [1] was 0.0093, the MIC [3] was 12.5 µg/mL and the EC90 [4] was 0.116 µg/mL. It also gave an EC99 [4] of 1.49 µg/mL, an MBC [5] of 1.56 µg/mL and an MIC [5] of 0.8 µg/mL.

Work on `CC(NNC(=O)c1ccncc1)c1ccccc1F` (stereo not drawn) yielded a Ratio [1] of 0.81, a Selective index [2] of 78.12 and an MIC [3] of 3.13 µg/mL (≈ 12.1 µM). For the same compound, the EC90 [4] was 2.54 µg/mL (≈ 9.8 µM), the EC99 [4] was 6.06 µg/mL and the MIC [5] was 1.6 µg/mL (≈ 6.17 µM).

`N#CC[n+]1ccc(C(=O)NNCC(F)(F)F)cc1` gave a Ratio [1] of 0.091, a Selective index [2] of 122 and an MIC [3] of 12.5 µg/mL. For the same compound, the EC90 [4] was 1.14 µg/mL, the EC99 [4] was 10.6 µg/mL and the MBC [5] was 3.13 µg/mL. For the same compound, the MIC [5] was 0.78 µg/mL.

`NNC(=O)c1ccncc1` [ISONIAZID] was tested, and the MIC [6] was 0.05 µg/mL (≈ 0.365 µM), the Selective index [2] was >20000 and the EC90 [4] was 0.03 µg/mL (≈ 0.219 µM). For the same compound, the EC99 [4] was 0.42 µg/mL and the MBC [5] was 0.1 µg/mL (≈ 0.729 µM).

Reference: ChEMBL document CHEMBL1145244, “In vitro advanced antimycobacterial screening of isoniazid-related hydrazones, hydrazides and cyanoboranes: part 14” (2005)
